Data from US8440794B2, “Peptide sequences, their branched form and use thereof for antimicrobial applications” (Universita' Degli Studi di Siena, priority 2008, dated 2013).
≈ marks a conversion by molar mass, not a printed value. Where a SMILES comes first, the peptide text is derived from it. Bridges are numbered along the chain shown (N, C = ends). Roman numbers before positions name the chains, in order. [ ]: non-standard residue; d: D form. βAla = NCCC(=O)O

Legend:
P. aeruginosa AV65 = format: cell-based, Pseudomonas aeruginosa; settings: AV65, 24 h
Method: (§1) M33, […], M35 and M36 MICs were determined against strains of several bacterial species, including Gram-negative pathogens and also Staphylococcus aureus (Table 1). MICs in the micromolar range were observed against several Gram-negatives including Pseudomonas aeruginosa, Acinetobacter baumannii and most Enterobacteriaceae, with the exception of Proteus mirabilis, Serratia marcescens and Burkholderia cepacia. Activity of peptides was retained against MDR strains with various resistance mechanisms (such as extended-spectrum beta-lactamases and carbapenemases), including MDR P. aeruginosa strains from CF patients. Antimicrobial profile of M33, […] and potency were overall similar to those of polymyxin B, although M33, M34, M35 and M36 also appeared to have some activity against S. aureus (Table 1).

P. aeruginosa EF-OBG6-1 = format: cell-based, Pseudomonas aeruginosa; settings: EF-OBG6-1, 24 h
Method: as §1

P. aeruginosa PAO-1 = format: cell-based, Pseudomonas aeruginosa; settings: PAO-1, 24 h
Method: as §1

[1] = tested on: P. aeruginosa SC-BGr12-02; format: cell-based, Pseudomonas aeruginosa; settings: SC-BGr12-02, 24 h
Method: as §1

[2] = tested on: P. aeruginosa SC-CNm03-07; format: cell-based, Pseudomonas aeruginosa; settings: SC-CNm03-07, 24 h
Method: as §1

[3] = tested on: P. aeruginosa SC-DMr05-04; format: cell-based, Pseudomonas aeruginosa; settings: SC-DMr05-04, 24 h
Method: as §1

[4] = tested on: P. aeruginosa SC-GMm03-05; format: cell-based, Pseudomonas aeruginosa; settings: SC-GMm03-05, 24 h
Method: as §1

[5] = tested on: P. aeruginosa SC-MDm03-02; format: cell-based, Pseudomonas aeruginosa; settings: SC-MDm03-02, 24 h
Method: as §1

[6] = tested on: P. aeruginosa SC-MDr03-06; format: cell-based, Pseudomonas aeruginosa; settings: SC-MDr03-06, 24 h
Method: as §1

[7] = tested on: P. aeruginosa SC-VMr04-05; format: cell-based, Pseudomonas aeruginosa; settings: SC-VMr04-05, 24 h
Method: as §1

P. aeruginosa VR-143/97 = format: cell-based, Pseudomonas aeruginosa; settings: VR-143/97, 24 h
Method: as §1

[8] = tested on: Enterobacter cloacae W03AN0041; format: cell-based; settings: W03AN0041, 24 h
[9] = tested on: Escherichia coli ATCC 25922; format: cell-based; settings: ATCC 25922, 24 h
[10] = tested on: Klebsiella pneumoniae ATCC 13833; format: cell-based; settings: ATCC 13833, 24 h
[11] = tested on: Proteus mirabilis W03VA1017; format: cell-based; settings: W03VA1017, 24 h
[12] = tested on: Pseudomonas aeruginosa ATCC 27853; format: cell-based; settings: ATCC 27853, 24 h
[13] = tested on: Serratia marcescens W03BG0003; format: cell-based; settings: W03BG0003, 24 h
[14] = tested on: Staphylococcus aureus ATCC 29213; format: cell-based; settings: ATCC 29213, 24 h
E. coli TG1 = test: In vivo antibacterial activity, mice infected ip with lethal amount of E. coli TG1; set-up: species or system Balb-c mice; settings: E. coli TG1 1.5×10^9 CFU ip; single dose 10 mg/Kg ip 30 minutes later
Method: FIG. 4. In vivo antibacterial activity of tetra-branched M33 peptide. A, Balb-c mice (20 g) were intra-peritoneally injected with a lethal amount of E. coli TG1 cells (1.5×10^9 CFU). Continuous line (Ctr) indicates mice only injected ip with bacteria and no M33. Broken line indicates mice injected ip with bacteria and a single injection of M33 peptide 10 mg/Kg 30 minutes later. B, Balb-c mice (20 g) were intra-peritoneally injected with a lethal amount of P. aeruginosa cells (ATCC 27853 1×10^7 CFU). Continuous line (Ctr) indicates mice which only received bacteria; other groups received bacteria and a single dose of M33 30 minutes later (see figure for doses of M33). C, Balb-c mice (20 g) were intra-peritoneally injected with a lethal amount of P. aeruginosa cells (multi drug resistant VR 147 clinical isolate, 1.5×10^7 CFU). Continuous line (Ctr) indicates mice which only received bacteria; broken line indicates mice which received bacteria and a single dose of M33 25 mg/Kg. D, Balb-c mice (20 g) were intra-peritoneally injected with a lethal amount of P. aeruginosa cells (ATCC 27853 1×10^7 CFU). […]
Tetra-branched M33 peptide was analysed for its antibacterial activity in mice infected with lethal amounts of bacteria. […]

## CC[C@H](C)[C@H](NC(=O)[C@H](CCCCN)NC(=O)[C@@H](N)CCCCN)C(=O)N[C@@H](CCCNC(=N)N)C(=O)N[C@H](C(=O)N[C@@H](CCCNC(=N)N)C(=O)N[C@@H](CC(C)C)C(=O)N[C@@H](CO)C(=O)N[C@@H](C)C(=O)NCCCC[C@H](NC(=O)[C@H](C)NC(=O)[C@H](CO)NC(=O)[C@H](CC(C)C)NC(=O)[C@H](CCCNC(=N)N)NC(=O)[C@@H](NC(=O)[C@H](CCCNC(=N)N)NC(=O)[C@@H](NC(=O)[C@H](CCCCN)NC(=O)[C@@H](N)CCCCN)[C@@H](C)CC)C(C)C)C(=O)NCCCC[C@H](NC(=O)[C@H](CCCCNC(=O)[C@H](C)NC(=O)[C@H](CO)NC(=O)[C@H](CC(C)C)NC(=O)[C@H](CCCNC(=N)N)NC(=O)[C@@H](NC(=O)[C@H](CCCNC(=N)N)NC(=O)[C@@H](NC(=O)[C@H](CCCCN)NC(=O)[C@@H](N)CCCCN)[C@@H](C)CC)C(C)C)NC(=O)[C@H](C)NC(=O)[C@H](CO)NC(=O)[C@H](CC(C)C)NC(=O)[C@H](CCCNC(=N)N)NC(=O)[C@@H](NC(=O)[C@H](CCCNC(=N)N)NC(=O)[C@@H](NC(=O)[C@H](CCCCN)NC(=O)[C@@H](N)CCCCN)[C@@H](C)CC)C(C)C)C(=O)NCCC(=O)O)C(C)C [M33, KKIRVRLSA] (I: H-KKIRVRLSAKK[βAla]-OH / II: H-KKIRVRLSAK / III: H-KKIRVRLSA / IV: H-KKIRVRLSA; amide I:10-IV:C, I:11-II:C, II:10-III:C; N-terminus assumed)
P. aeruginosa AV65
  MIC: 1.5 µM (≈ 7.02 µg/mL)
P. aeruginosa EF-OBG6-1
  MIC: 0.7 µM (≈ 3.28 µg/mL)
P. aeruginosa PAO-1
  MIC: 1.5 µM (≈ 7.02 µg/mL)
[1]
  MIC: 1.5 µM (≈ 7.02 µg/mL)
[2]
  MIC: 0.3 µM (≈ 1.4 µg/mL)
[3]
  MIC: 1.5 µM (≈ 7.02 µg/mL)
[4]
  MIC: 1.5 µM (≈ 7.02 µg/mL)
[5]
  MIC: 3 µM (≈ 14 µg/mL)
[6]
  MIC: 3 µM (≈ 14 µg/mL)
[7]
  MIC: 3 µM (≈ 14 µg/mL)
P. aeruginosa VR-143/97
  MIC: 1.5 µM (≈ 7.02 µg/mL)
[8]
  MIC: 1.5 µM (≈ 7.02 µg/mL)
[9]
  MIC: 1.5 µM (≈ 7.02 µg/mL)
[10]
  MIC: 1.5 µM (≈ 7.02 µg/mL)
[11]
  MIC: >24 µM
[12]
  MIC: 1.5 µM (≈ 7.02 µg/mL)
[13]
  MIC: >24 µM
[14]
  MIC: 6 µM (≈ 28.1 µg/mL)
E. coli TG1
  Animals protected from signs of sepsis and death (seven-day survival): 100%
